Experiments:
AVEFA [1] = assay: Post-emergence herbicidal action against AVEFA; assay type: in vivo, Avena fatua; conditions: Avena fatua, 504 h, visual assessment about 3 weeks after treatment, 100% = plants have died, 0% = like control plants
Procedure, shortened: (§1)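 Spray, one-leaf stage: WP or EC compound in water, 600–800 l/ha, 0.2% wetting agent. Plants held about 3 weeks in the greenhouse, then visually rated in percent of kill compared with untreated controls.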

STEME [2] = assay: Post-emergence herbicidal action against STEME; assay type: in vivo, Stellaria media; conditions: Stellaria media, 504 h; for pest or weed control at 5 g/ha: dosage 5 g/ha
Procedure, shortened: as §1

VIOTR [3] = assay: Pre-emergence herbicidal action against VIOTR; assay type: in vivo, Viola tricolor; conditions: Viola tricolor, 504 h; for pest or weed control at 20 g/ha: dosage 20 g/ha; for pest or weed control at 80 g/ha: dosage 80 g/ha
Procedure, shortened: (§2)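 Pre-emergence soil-surface spray of formulated compound (WP or EC; 600 to 800 l/ha; 0.2% wetting agent) over seeds sown in sandy loam. After 3 weeks under greenhouse conditions, damage is estimated visually in percent against untreated plants.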

AMARE [4] = assay: Post-emergence herbicidal action against AMARE; assay type: in vivo, Amaranthus retroflexus; conditions: Amaranthus retroflexus, 504 h, 20 g/ha, visual assessment about 3 weeks after treatment, 100% = plants have died, 0% = like control plants
Procedure, shortened: as §1

DIGSA [5] = assay: Pre-emergence herbicidal action against DIGSA; assay type: in vivo, Digitaria sanguinalis; conditions: Digitaria sanguinalis, 504 h; for pest or weed control at 20 g/ha: dosage 20 g/ha; for pest or weed control at 80 g/ha: dosage 80 g/ha
Procedure, shortened: as §2

VIOTR [6] = assay: Post-emergence herbicidal action against VIOTR; assay type: in vivo, Viola tricolor; conditions: Viola tricolor, 504 h
Procedure, shortened: as §1

MATIN [7] = assay: Pre-emergence herbicidal action against MATIN; assay type: in vivo, Matricaria inodora; conditions: Tripleurospermum inodorum, 504 h; for pest or weed control at 20 g/ha: dosage 20 g/ha; for pest or weed control at 80 g/ha: dosage 80 g/ha
Procedure, shortened: as §2

ABUTH [8] = assay: Post-emergence herbicidal action against ABUTH; assay type: in vivo, Abutilon theophrasti; conditions: Abutilon theophrasti, 504 h, visual assessment about 3 weeks after treatment vs untreated controls; for pest or weed control at 20 g/ha: dosage 20 g/ha
Procedure, shortened: as §1

LOLRI [9] = assay: Post-emergence herbicidal action against LOLRI; assay type: in vivo, Lolium rigidum; conditions: Lolium rigidum, 504 h, dosage 20 g/ha
Experimental: Seeds of monocotyledonous and dicotyledonous weed and crop plants are laid out in sandy loam soil in wood-fiber pots, covered with soil and cultivated in a greenhouse under good growth conditions. 2 to 3 weeks after sowing, the test plants are treated at the one-leaf stage. The compounds of the invention, formulated in the form of wettable powders (WP) or as emulsion concentrates (EC), are then sprayed onto the green parts of the plants in the form of an aqueous suspension or emulsion at a water application rate equivalent to 600 to 800 l/ha, with addition of 0.2% wetting agent. After the test plants have been left to stand in the greenhouse under optimal growth conditions for about 3 weeks, the action of the preparations is assessed visually in comparison to untreated controls (herbicidal action in percent (%): 100% activity=the plants have died, 0% activity=like control plants). […] The tables below illustrate, in an illustrative manner, the post-emergence herbicidal action of the compounds of the invention, the herbicidal activity being stated in percent.

SETVI [10] = assay: Post-emergence herbicidal action against SETVI; assay type: in vivo, Setaria viridis; conditions: Setaria viridis, 504 h; for pest or weed control at 5 g/ha: dosage 5 g/ha; for pest or weed control at 20 g/ha: dosage 20 g/ha
Procedure, shortened: as §1

PHBPU [11] = assay: Pre-emergence herbicidal action against PHBPU; assay type: in vivo, Pharbitis purpurea; conditions: Ipomoea purpurea, 504 h, dosage 80 g/ha
Procedure, shortened: as §2

STEME [12] = assay: Pre-emergence herbicidal action against STEME; assay type: in vivo, Stellaria media; conditions: Stellaria media, 504 h; for pest or weed control at 20 g/ha: dosage 20 g/ha; for pest or weed control at 80 g/ha: dosage 80 g/ha
Procedure, shortened: as §2

VERPE [13] = assay: Pre-emergence herbicidal action against VERPE; assay type: in vivo, Veronica persica; conditions: Veronica persica, 504 h, dosage 80 g/ha
Procedure, shortened: as §2

ECHCG [14] = assay: Post-emergence herbicidal action against ECHCG; assay type: in vivo, Echinochloa crus-galli; conditions: Echinochloa crus-galli, 504 h; for pest or weed control at 20 g/ha: dosage 20 g/ha
Procedure, shortened: as §1

AMARE [15] = assay: Pre-emergence herbicidal action against AMARE; assay type: in vivo, Amaranthus retroflexus; conditions: Amaranthus retroflexus, 504 h, scored visually after 3 weeks vs untreated controls, 100% = plants have died, 0% = like control plants
Procedure, shortened: as §2

MATIN [16] = assay: Post-emergence herbicidal action against MATIN; assay type: in vivo, Matricaria inodora; conditions: Tripleurospermum inodorum, 504 h, dosage 20 g/ha
Procedure, shortened: as §1

ABUTH [17] = assay: Pre-emergence herbicidal action against ABUTH; assay type: in vivo, Abutilon theophrasti; conditions: Abutilon theophrasti, 504 h; for pest or weed control at 80 g/ha: scored visually after 3 weeks vs untreated controls (100% = plants have died, 0% = like control plants); for pest or weed control at 20 g/ha: dosage 20 g/ha, scored visually after 3 weeks vs untreated controls, 100% = plants have died, 0% = like control plants, read-out: Pre-emergence action against ABUTH (herbicidal activity in percent)
Procedure, shortened: as §2

POLCO = assay: Pre-emergence herbicidal action against POLCO; assay type: in vivo, Polygonum convolvulus; conditions: Fallopia convolvulus, 504 h, dosage 80 g/ha
Procedure, shortened: as §2

VERPE [18] = assay: Post-emergence herbicidal action against VERPE; assay type: in vivo, Veronica persica; conditions: Veronica persica, 504 h, 20 g/ha
Procedure, shortened: as §1

DIGSA [19] = assay: Post-emergence herbicidal action against DIGSA; assay type: in vivo, Digitaria sanguinalis; conditions: Digitaria sanguinalis, 504 h
Procedure, shortened: as §1

ALOMY [20] = assay: Post-emergence herbicidal action against ALOMY; assay type: in vivo, Alopecurus myosuroides; conditions: Alopecurus myosuroides, 504 h, dosage 20 g/ha, visual assessment about 3 weeks after treatment vs untreated controls
Procedure, shortened: as §1

ECHCG [21] = assay: Pre-emergence herbicidal action against ECHCG; assay type: in vivo, Echinochloa crus-galli; conditions: Echinochloa crus-galli, 504 h, 80 g/ha
Procedure, shortened: as §2

SETVI [22] = assay: Pre-emergence herbicidal action against SETVI; assay type: in vivo, Setaria viridis; conditions: Setaria viridis, 504 h; for pest or weed control at 20 g/ha: dosage 20 g/ha; for pest or weed control at 80 g/ha: dosage 80 g/ha
Procedure, shortened: as §2

PHBPU [23] = assay: Post-emergence herbicidal action against PHBPU; assay type: in vivo, Pharbitis purpurea; conditions: Ipomoea purpurea, 504 h
Procedure, shortened: as §1

LOLRI [24] = assay: Pre-emergence herbicidal action against LOLRI; assay type: in vivo, Lolium rigidum; conditions: Lolium rigidum, 504 h
Procedure, shortened: as §2

AVEFA [25] = assay: Pre-emergence herbicidal action against AVEFA; assay type: in vivo, Avena fatua; conditions: Avena fatua, 504 h; 80 g/ha, pre-emergence
Procedure, shortened: as §2

ALOMY [26] = assay: Pre-emergence herbicidal action against ALOMY; assay type: in vivo, Alopecurus myosuroides; conditions: Alopecurus myosuroides, 504 h, pre-emergence; for pest or weed control at 80 g/ha: scored visually after 3 weeks vs untreated controls (100% = plants have died, 0% = like control plants)
Procedure, shortened: as §2

HORMU [27] = assay: Post-emergence herbicidal action against HORMU; assay type: in vivo, Hordeum murinum; conditions: Hordeum murinum, 504 h, dosage 20 g/ha
Procedure, shortened: as §1

HORMU [28] = assay: Pre-emergence herbicidal action against HORMU; assay type: in vivo, Hordeum murinum; conditions: Hordeum murinum, 504 h; 80 g/ha, pre-emergence
Procedure, shortened: as §2

CCNC(=O)c1c(C(F)(F)F)ccc(C(=O)Nc2nnnn2C)c1SC [Example 1-82]
90%: pest or weed control at 20 g/ha (AVEFA [1]) | pest or weed control at 20 g/ha (STEME [2]) | pest or weed control at 5 g/ha (STEME [2]) | pest or weed control at 20 g/ha (AMARE [4]) | pest or weed control at 20 g/ha (VIOTR [6]) | pest or weed control at 5 g/ha (ABUTH [8]; dosage 5 g/ha) | pest or weed control at 20 g/ha (ABUTH [8]) | pest or weed control at 20 g/ha (SETVI [10]) | pest or weed control at 80 g/ha (VERPE [13]) | pest or weed control at 20 g/ha (ECHCG [14]) | pest or weed control at 20 g/ha (AMARE [15]) | pest or weed control at 80 g/ha (POLCO) | pest or weed control at 5 g/ha (DIGSA [19]) | pest or weed control at 20 g/ha (DIGSA [19]) | pest or weed control at 20 g/ha (ALOMY [20]) | pest or weed control at 20 g/ha (PHBPU [23]; dosage 20 g/ha) | pest or weed control at 80 g/ha (AVEFA [25]) | pest or weed control at 20 g/ha (HORMU [27])
100%: pest or weed control at 20 g/ha (VIOTR [3]) | pest or weed control at 80 g/ha (VIOTR [3]) | pest or weed control at 20 g/ha (DIGSA [5]) | pest or weed control at 80 g/ha (DIGSA [5]) | pest or weed control at 20 g/ha (MATIN [7]) | pest or weed control at 80 g/ha (MATIN [7]) | pest or weed control at 20 g/ha (STEME [12]) | pest or weed control at 80 g/ha (STEME [12]) | pest or weed control at 80 g/ha (AMARE [15]) | pest or weed control at 80 g/ha (ABUTH [17]) | pest or weed control at 20 g/ha (ABUTH [17]) | pest or weed control at 80 g/ha (ECHCG [21]) | pest or weed control at 80 g/ha (SETVI [22])
80%: pest or weed control at 20 g/ha (LOLRI [9]) | pest or weed control at 5 g/ha (SETVI [10]) | pest or weed control at 80 g/ha (PHBPU [11]) | pest or weed control at 5 g/ha (ECHCG [14]; dosage 5 g/ha) | pest or weed control at 20 g/ha (MATIN [16]) | pest or weed control at 20 g/ha (VERPE [18]) | pest or weed control at 20 g/ha (SETVI [22]) | pest or weed control at 5 g/ha (PHBPU [23]; dosage 5 g/ha) | pest or weed control at 80 g/ha (LOLRI [24]) | pest or weed control at 80 g/ha (ALOMY [26])

Cn1nnnc1NC(=O)c1ccc(Cl)c(C(=O)NC2CC2)c1Cl [Example 1-173]
90%: pest or weed control at 5 g/ha (AVEFA [1]; 5 g/ha) | pest or weed control at 80 g/ha (VIOTR [3]) | pest or weed control at 5 g/ha (VIOTR [6]; 5 g/ha) | pest or weed control at 20 g/ha (VIOTR [6]) | pest or weed control at 20 g/ha (ABUTH [8]) | pest or weed control at 20 g/ha (LOLRI [9]) | pest or weed control at 5 g/ha (SETVI [10]) | pest or weed control at 20 g/ha (SETVI [10]) | pest or weed control at 80 g/ha (PHBPU [11]) | pest or weed control at 20 g/ha (ABUTH [17]) | pest or weed control at 80 g/ha (HORMU [28]) | pest or weed control at 5 g/ha (DIGSA [19]) | pest or weed control at 20 g/ha (SETVI [22]) | pest or weed control at 80 g/ha (LOLRI [24]) | pest or weed control at 20 g/ha (HORMU [27])
80%: pest or weed control at 5 g/ha (STEME [2]) | pest or weed control at 20 g/ha (VIOTR [3]) | pest or weed control at 20 g/ha (MATIN [7]) | pest or weed control at 20 g/ha (STEME [12]) | pest or weed control at 20 g/ha (ECHCG [14]) | pest or weed control at 80 g/ha (POLCO) | pest or weed control at 20 g/ha (ALOMY [20]) | pest or weed control at 20 g/ha (LOLRI [24]; 20 g/ha) | pest or weed control at 20 g/ha (ALOMY [26]; 20 g/ha, scored visually after 3 weeks, 100% = plants have died, 0% = like control plants)
100%: pest or weed control at 20 g/ha (AVEFA [1]) | pest or weed control at 20 g/ha (STEME [2]) | pest or weed control at 20 g/ha (AMARE [4]) | pest or weed control at 20 g/ha (DIGSA [5]) | pest or weed control at 80 g/ha (DIGSA [5]) | pest or weed control at 80 g/ha (MATIN [7]) | pest or weed control at 80 g/ha (STEME [12]) | pest or weed control at 20 g/ha (AMARE [15]) | pest or weed control at 80 g/ha (AMARE [15]) | pest or weed control at 80 g/ha (ABUTH [17]) | pest or weed control at 20 g/ha (DIGSA [19]) | pest or weed control at 80 g/ha (ECHCG [21]) | pest or weed control at 80 g/ha (SETVI [22]) | pest or weed control at 80 g/ha (AVEFA [25]) | pest or weed control at 80 g/ha (ALOMY [26])
